# Experimental data taken from patent US9730940B2, “Purine inhibitors of human phosphatidylinositol 3-kinase delta” (priority 2012, dated 2017).
# Biological target: PI3K-alpha (Homo sapiens (Human), UniProt P42336)
# Assay: HTRF PI3K biochemical assay, alpha isoform
# Conditions: ratio PI3K-alpha IC50 value/PI3K-delta IC50 value
# Sequence of PI3K-alpha (P42336 whole entry, looked up, canonical isoform): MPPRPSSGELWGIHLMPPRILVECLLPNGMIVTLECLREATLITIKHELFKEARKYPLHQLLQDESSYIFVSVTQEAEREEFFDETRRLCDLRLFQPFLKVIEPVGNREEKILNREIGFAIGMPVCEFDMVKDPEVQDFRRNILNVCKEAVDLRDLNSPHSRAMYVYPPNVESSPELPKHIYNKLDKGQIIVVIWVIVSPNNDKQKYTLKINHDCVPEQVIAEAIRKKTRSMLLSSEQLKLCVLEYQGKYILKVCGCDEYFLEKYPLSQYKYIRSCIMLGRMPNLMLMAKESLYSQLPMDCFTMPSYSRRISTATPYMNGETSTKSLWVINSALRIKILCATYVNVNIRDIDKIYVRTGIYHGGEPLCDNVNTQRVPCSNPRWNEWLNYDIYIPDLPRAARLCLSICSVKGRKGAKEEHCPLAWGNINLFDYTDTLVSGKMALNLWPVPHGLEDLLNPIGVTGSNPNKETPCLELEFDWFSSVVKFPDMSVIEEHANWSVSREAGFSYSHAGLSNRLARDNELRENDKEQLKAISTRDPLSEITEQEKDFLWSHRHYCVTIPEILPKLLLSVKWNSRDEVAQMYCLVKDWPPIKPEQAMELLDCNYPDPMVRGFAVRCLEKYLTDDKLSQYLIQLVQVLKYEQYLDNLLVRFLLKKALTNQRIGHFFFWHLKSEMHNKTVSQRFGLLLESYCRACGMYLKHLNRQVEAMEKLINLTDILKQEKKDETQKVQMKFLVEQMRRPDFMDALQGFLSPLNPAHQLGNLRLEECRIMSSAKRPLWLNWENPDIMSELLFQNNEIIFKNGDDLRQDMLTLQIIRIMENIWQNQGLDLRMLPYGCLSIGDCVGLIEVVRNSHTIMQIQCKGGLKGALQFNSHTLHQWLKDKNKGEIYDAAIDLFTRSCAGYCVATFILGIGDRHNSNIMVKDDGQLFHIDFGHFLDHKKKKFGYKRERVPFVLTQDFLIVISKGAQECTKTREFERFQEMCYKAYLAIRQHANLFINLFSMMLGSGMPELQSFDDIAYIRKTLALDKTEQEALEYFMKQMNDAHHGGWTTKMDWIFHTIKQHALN
# Sequence of PI3K-alpha (P27986 whole entry partner, looked up, canonical isoform): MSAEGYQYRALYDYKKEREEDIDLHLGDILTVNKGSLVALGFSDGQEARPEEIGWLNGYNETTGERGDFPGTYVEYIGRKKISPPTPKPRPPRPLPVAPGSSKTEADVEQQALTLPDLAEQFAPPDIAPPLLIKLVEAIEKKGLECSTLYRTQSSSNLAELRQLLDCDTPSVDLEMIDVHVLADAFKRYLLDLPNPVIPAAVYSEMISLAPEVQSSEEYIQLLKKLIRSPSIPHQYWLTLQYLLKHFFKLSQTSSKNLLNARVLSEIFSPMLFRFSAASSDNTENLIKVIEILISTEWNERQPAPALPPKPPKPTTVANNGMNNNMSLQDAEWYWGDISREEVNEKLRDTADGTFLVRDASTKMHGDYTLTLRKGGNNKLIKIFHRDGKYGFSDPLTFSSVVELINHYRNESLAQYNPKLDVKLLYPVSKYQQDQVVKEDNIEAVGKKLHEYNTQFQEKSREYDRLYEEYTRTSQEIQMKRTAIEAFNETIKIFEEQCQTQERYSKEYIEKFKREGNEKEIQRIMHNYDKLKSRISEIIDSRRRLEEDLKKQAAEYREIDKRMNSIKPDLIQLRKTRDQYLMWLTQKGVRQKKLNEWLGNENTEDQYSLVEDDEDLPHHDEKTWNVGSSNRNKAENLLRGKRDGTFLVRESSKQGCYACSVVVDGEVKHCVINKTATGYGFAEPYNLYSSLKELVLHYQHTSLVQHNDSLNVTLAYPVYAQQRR
row,SMILES,Relative Selectivity versus PI3Kalpha
1,"CCn1c(-c2cnc(C)nc2)nc2c(O[C@H]3CCN(C(=O)OC(C)(C)C)[C@@H]3C)ncnc21 [Compound 1-48, tert-butyl (2R,3S)-3-{[9-ethyl-8-(2-methylpyrimidin-5-yl)-9H-purin-6-yl]oxy}-2-methylpyrrolidine-1-carboxylate]",>10
2,"CCn1c(-c2cnc(C)nc2)nc2c(O[C@H]3CCN(C(=O)OCCN(C)C)C3)ncnc21 [Compound 1-49, 2-(dimethylamino)ethyl (3S)-3-{[9-ethyl-8-(2-methylpyrimidin-5-yl)-9H-purin-6-yl]oxy}pyrrolidine-1-carboxylate]",>10
3,"CCn1c(-c2ccc(OC(F)F)nc2)nc2c(O[C@H]3CCN(C(=O)OC(C)(C)C)C3)ncnc21 [Compound 1-51, tert-butyl (3S)-3-({8-[6-(difluoromethoxy)pyridin-3-yl]-9-ethyl-9H-purin-6-yl}oxy)pyrrolidine-1-carboxylate]",>10
4,"CCn1ncc(-c2nc3c(OC4CCN(C(=O)c5ccccc5)C4)ncnc3n2C)c1C (centres unmarked) [Compound 2-1, 8-(1-ethyl-5-methyl-1H-pyrazol-4-yl)-9-methyl-6-{[1-(phenylcarbonyl)pyrrolidin-3-yl]oxy}-9H-purine]",>10
5,"CCn1ncc(-c2nc3c(OC4CCN(C(=O)C5CCCC5)C4)ncnc3n2C)c1C (centres unmarked) [Compound 2-2, 6-{[1-(cyclopentylcarbonyl)pyrrolidin-3-yl]oxy}-8-(1-ethyl-5-methyl-1H-pyrazol-4-yl)-9-methyl-9H-purine]",>10
6,"CCn1ncc(-c2nc3c(OC4CCN(C(=O)c5ccc6ccccc6c5)C4)ncnc3n2C)c1C (centres unmarked) [Compound 2-3, 8-(1-ethyl-5-methyl-1H-pyrazol-4-yl)-9-methyl-6-{[1-(naphthalen-2-ylcarbonyl)pyrrolidin-3-yl]oxy}-9H-purine]",>10
7,"CCn1ncc(-c2nc3c(OC4CCN(C(=O)C5CCCCC5)C4)ncnc3n2C)c1C (centres unmarked) [Compound 2-4, 6-{[1-(cyclohexylcarbonyl)pyrrolidin-3-yl]oxy}-8-(1-ethyl-5-methyl-1H-pyrazol-4-yl)-9-methyl-9H-purine]",>10
8,"CCn1ncc(-c2nc3c(OC4CCN(C(=O)COC)C4)ncnc3n2C)c1C (centres unmarked) [Compound 2-5, 8-(1-ethyl-5-methyl-1H-pyrazol-4-yl)-6-{[1-(methoxyacetyl)pyrrolidin-3-yl]oxy}-9-methyl-9H-purine]",>10
9,"CCn1ncc(-c2nc3c(OC4CCN(C(=O)CC5CCOCC5)C4)ncnc3n2C)c1C (centres unmarked) [Compound 2-6, 8-(1-ethyl-5-methyl-1H-pyrazol-4-yl)-9-methyl-6-{[1-(tetrahydro-2H-pyran-4-ylacetyl)pyrrolidin-3-yl]oxy}-9H-purine]",>10
10,"CCn1ncc(-c2nc3c(OC4CCN(C(=O)c5cnco5)C4)ncnc3n2C)c1C (centres unmarked) [Compound 2-7, 8-(1-ethyl-5-methyl-1H-pyrazol-4-yl)-9-methyl-6-{[1-(1,3-oxazol-5-ylcarbonyl)pyrrolidin-3-yl]oxy}-9H-purine]",>10
11,"CCn1ncc(-c2nc3c(O[C@H]4CCN(C(=O)C5CCOCC5)C4)ncnc3n2C)c1C [Compound 2-8, (S)-(3-((8-(1-ethyl-5-methyl-1H-pyrazol-4-yl)-9-methyl-9H-purin-6-yl)oxy)pyrrolidin-1-yl)(tetrahydro-2H-pyran-4-yl)methanone]",>10
12,"CCn1ncc(-c2nc3c(O[C@@H]4CCN(C(=O)C5CCOCC5)C4)ncnc3n2C)c1C [Compound 2-9, (R)-(3-((8-(1-ethyl-5-methyl-1H-pyrazol-4-yl)-9-methyl-9H-purin-6-yl)oxy)pyrrolidin-1-yl)(tetrahydro-2H-pyran-4-yl)methanone]",3
13,"CCn1ncc(-c2nc3c(O[C@H]4CCN(C(=O)C5(C)CCOCC5)C4)ncnc3n2C)c1C [Compound 2-10, 8-(1-ethyl-5-methyl-1H-pyrazol-4-yl)-9-methyl-6-({(3S)-1-[(4-methyltetrahydro-2H-pyran-4-yl)carbonyl]pyrrolidin-3-yl}oxy)-9H-purine]",>10
14,"CCn1ncc(-c2nc3c(OC4CCN(C(=O)C5CCOCC5)CC4)ncnc3n2C)c1C [Compound 2-11, (4-((8-(1-ethyl-5-methyl-1H-pyrazol-4-yl)-9-methyl-9H-purin-6-yl)oxy)piperidin-1-yl)(tetrahydro-2H-pyran-4-yl)methanone]",2
15,"CCC(=O)N1CCC(Oc2ncnc3c2nc(-c2cnn(CC)c2C)n3C)CC1 [Compound 2-14, 1-(4-((8-(1-ethyl-5-methyl-1H-pyrazol-4-yl)-9-methyl-9H-purin-6-yl)oxy)piperidin-1-yl)propan-1-one]",1
16,"CCn1ncc(-c2nc3c(O[C@H]4CCN(C(=O)CC#N)C4)ncnc3n2C)c1C [Compound 2-15, 3-[(3S)-3-{[8-(1-ethyl-5-methyl-1H-pyrazol-4-yl)-9-methyl-9H-purin-6-yl]oxy}pyrrolidin-1-yl]-3-oxopropanenitrile]",>10
17,"CCn1ncc(-c2nc3c(O[C@H]4CCN(C(=O)C5CC5)C4)ncnc3n2C)c1C [Compound 2-16, 6-{[(3S)-1-(cyclopropylcarbonyl)pyrrolidin-3-yl]oxy}-8-(1-ethyl-5-methyl-1H-pyrazol-4-yl)-9-methyl-9H-purine]",>10
18,"CCn1ncc(-c2nc3c(O[C@H]4CCN(C(=O)C5CCCO5)C4)ncnc3n2C)c1C (stereo partly drawn) [Compound 2-17, 8-(1-ethyl-5-methyl-1H-pyrazol-4-yl)-9-methyl-6-{[(3S)-1-(tetrahydrofuran-2-ylcarbonyl)pyrrolidin-3-yl]oxy}-9H-purine]",>10
19,"CCn1ncc(-c2nc3c(O[C@H]4CCN(C(=O)c5ccc(N6CCN(C)CC6)cc5)C4)ncnc3n2C)c1C [Compound 2-21, 8-(1-ethyl-5-methyl-1H-pyrazol-4-yl)-9-methyl-6-{[(3S)-1-{[4-(4-methylpiperazin-1-yl)phenyl]carbonyl}pyrrolidin-3-yl]oxy}-9H-purine]",1
20,"CCn1ncc(-c2nc3c(O[C@H]4CCN(C(=O)c5cccnc5)C4)ncnc3n2C)c1C [Compound 2-22, 8-(1-ethyl-5-methyl-1H-pyrazol-4-yl)-9-methyl-6-{[(3S)-1-(pyridin-3-ylcarbonyl)pyrrolidin-3-yl]oxy}-9H-purine]",>10
21,"CCn1ncc(-c2nc3c(O[C@H]4CCN(C(=O)C5CCOC(C)(C)C5)C4)ncnc3n2C)c1C (stereo partly drawn) [Compound 2-24, 6-({(3S)-1-[(2,2-dimethyltetrahydro-2H-pyran-4-yl)carbonyl]pyrrolidin-3-yl}oxy)-8-(1-ethyl-5-methyl-1H-pyrazol-4-yl)-9-methyl-9H-purine]",>10
22,"CCC(=O)N1CC[C@H](Oc2ncnc3c2nc(-c2cnc(C)nc2)n3CC)C1 [Compound 2-25, 9-ethyl-8-(2-methylpyrimidin-5-yl)-6-{[(3S)-1-propanoylpyrrolidin-3-yl]oxy}-9H-purine]",>10
23,"CCn1c(-c2cnc(C)nc2)nc2c(O[C@H]3CCN(C(=O)C4CCOCC4)C3)ncnc21 [Compound 2-26, 9-ethyl-8-(2-methylpyrimidin-5-yl)-6-{[(3S)-1-(tetrahydro-2H-pyran-4-ylcarbonyl)pyrrolidin-3-yl]oxy}-9H-purine]",>10
